In US20050233942A1, “Oxygenated dibenzo-alpha-pyrone chromoproteins” (priority 2004, published 2005):
Values after ≈ are worked out from the molar mass of the structure shown.

How the values were obtained:
[1] = system: chronic stress (CS) induced gastric ulceration; assay: Chronic stress (CS) induced gastric ulceration in albino rats; assay type: in vivo, CF strain albino rats; details: 14 days
Experimental: A comparative study of shilajit bioactive constituents from EPA, DHA, DBPs and DCPs, was carried out to determine their adaptogenic potency against chronic stress (CS) in albino rats. It is now increasingly becoming evident that CS of a mild but unpredictable nature which the animal is unable to cope with (inescapable stress), is clinically more relevant than acute stress even when the latter is severe in nature. It is believed that chronic, unpredictable, and inescapable stress resembles the situation faced by an individual that ultimately results in chronic stress-induced physiological perturbation and disease. Animals The investigation was carried out on CF strain albino rats, of either sex (140-180 g), housed in colony cages at an ambient temperature of 25±2° C., with a 12 h. light/12 h. dark cycle. […] The procedure of Armario et al (1993) was followed. Briefly, rats were randomly assigned to control or stress groups. Those assigned to the stress groups were subjected to 1 h foot shock, through a grid floor, every day for 14 days. The duration of each shock (2 mA) and the intervals between the shocks were randomly programmed between 3-5 sec. and 10-110 sec., respectively, to make the stress unpredictable. The shock chamber had high walls which made escape from shock impossible. EPA (Aldrich, Milw.), DHA (Sigma), DBPs and DCPs were separately suspended/dissolved in 0.3% carboxymethylcellulose(CMC) in distilled water and administered orally (p.o.), for 14 days, starting on day 1, 60 min prior to electroshock. Control animals received only the vehicle in either unstressed or the stressed rats for the same period in a volume of 2.5 ml/kg, p.o. Estimations were conducted on day 14, one hour after the last stress procedure and two hours after the last test compound or vehicle was administered. Gastric ulcerations (Bhattacharya et al., 1987). On day 14, rats were killed by decapitation the stomach was split open along the greater curvature and the numbers of discrete ulcers were noted. […] Thereafter, the pooled ulcer score was calculated according to the method of Bhattacharya et al. (1987).

[2] = system: Fe-ADP-ascorbate induced lipid peroxidation (LPO) in rat brain; assay: Inhibition of Fe-ADP-ascorbate induced lipid peroxidation (LPO) in rat brain homogenate; assay type: biochemical, Albino rats (Sprague Dawley strain); details: 37° C., 30 minutes
Experimental: Inhibition of Fe-ADP-ascorbate induced lipid peroxidation (LPO) in rat brain by DBP and DCPs
Albino rats (Sprague Dawley strain) were sacrificed by cervical dislocation and decapitation. Brains were dissected out and 10% w/v homogenate was prepared in 0.15 M KCl. The brain homogenate was centrifuged at 1500 rpm for 10 minutes and the supernatant was used for the study. The incubation mixture contained in a final volume of 1 ml., brain homogenate (500 μl), distilled water (100 μl) or test compounds dissolved in solvents at different concentrations (10 to 100 μg/ml of the final volume). Peroxidation was initiated by adding FeCl3 (100 μM), ADP (1 mM) and ascorbate (100 μM) to give the final concentration stated. After incubating at 37° C. for 30 minutes, the reaction was stopped by adding acetic acid buffer (1.5 ml, pH 3.5) and thiobarbituric acid solution (1.5 ml, pH 7.4) to 1 ml of LPO mixture. The reaction mixture was heated at 85° C. for 30 minutes, cooled, centrifuged (2000 rpm for 10 minutes) and the absorbance of the supernatant was measured at 532 nm. IC50 values were calculated in the usual way by plotting the concentration of the test compounds versus percent inhibition of LPO.

[3] = system: adrenal gland ascorbic acid and corticosterone concentrations and plasma corticosterone level; assay: CS induced alteration of adrenal gland ascorbic acid and corticosterone and plasma corticosterone (adrenocorticoid activity); assay type: in vivo, CF strain albino rats; details: 5 mg/kg p.o. + CS
Experimental: Animals The investigation was carried out on CF strain albino rats, of either sex (140-180 g), housed in colony cages at an ambient temperature of 25±2° C., with a 12 h. light/12 h. dark cycle. Experiments were conducted between 0900 and 1400 hrs. • EPA, Eicosapentaenoic acid • DHA, Docosahexaenoic acid • DBPs, 1:1 mixture of 3-hydroxy- and 3,8-dihydroxydibenzo-alpha-pyrone • DCPs, DBP-chromoproteins
The procedure of Armario et al (1993) was followed. Briefly, rats were randomly assigned to control or stress groups. Those assigned to the stress groups were subjected to 1 h foot shock, through a grid floor, every day for 14 days. The duration of each shock (2 mA) and the intervals between the shocks were randomly programmed between 3-5 sec. and 10-110 sec., respectively, to make the stress unpredictable. The shock chamber had high walls which made escape from shock impossible.
EPA (Aldrich, Milw.), DHA (Sigma), DBPs and DCPs were separately suspended/dissolved in 0.3% carboxymethylcellulose(CMC) in distilled water and administered orally (p.o.), for 14 days, starting on day 1, 60 min prior to electroshock. […]
Adrenal gland ascorbic acid (Zenker and Bernstein, 1958) and corticosterone concentrations (Selye, 1936), and plasma corticosterone levels (Selye, 1936) were determined to substantiate the validity and intensity of the stress procedure adopted.

SMILES | Ulcer incidence % ([1]; 5 mg/kg p.o.) [%] | Ulcer incidence % ([1]; 10 mg/kg p.o.) [%] | IC50 (LPO) [2] [µg/mL] | Adrenal corticosterone [3] [μg/100 mg] | Plasma corticosterone [3] [µg/dL]
CC/C=C\C/C=C\C/C=C\C/C=C\C/C=C\C/C=C\CCC(=O)O [DHA, Docosahexaenoic acid] | 70 | 60 |  |  | 
CC(=O)Oc1c(C)c(C)c2c(c1C)CCC(C)(CCC[C@H](C)CCC[C@H](C)CCCC(C)C)O2 (stereo partly drawn) [Vitamin E acetate] |  |  | 56 |  | 
O=C1O[C@H]([C@@H](O)CO)C(O)=C1O [Ascorbic acid] |  |  | 70 (≈ 397 µM) |  | 
O=c1oc2cc(O)ccc2c2ccc(O)cc12 [3,8-Dihydroxydibenzo-alpha-pyrone] |  |  | 30 (≈ 131 µM) |  | 
CC/C=C\C/C=C\C/C=C\C/C=C\C/C=C\CCCC(=O)O [EPA, Eicosapentaenoic acid] | 70 | 60 |  | 2.3 ± 0.8 | 22.1 ± 2.9
